Measurements published in patent publication US8440790B2, “Crystal structure of the CCZ-LZ domain of NEMO” (Les Laboratoires Servier, priority 2008, dated 2013).

How the values were obtained:
NF-κB pathway = assay: Functional complementation in NEMO-deficient mouse embryo fibroblasts (Igκ-luciferase reporter, TNFα stimulation); type: cell-based; conditions: NEMO-deficient MEF transiently transfected with NEMO variant and Igκ-luciferase reporter; TNFα stimulation for 24 hours; compared with wild-type NEMO
Source text: The capabilities of the wild-type NEMO protein and of the above-defined mutant NEMO proteins in restoring activation of the NF-κB pathway in response to the proinflammatory cytokine TNF-α are compared and illustrated in FIG. 5. For that purpose, NEMO-deficient mouse embryo fibroblasts (MEF) are transiently co-transfected on the one hand with the plasmid coding for the Igκ-luciferase reporter gene and on the other hand with the plasmids coding for the various proteins, and then stimulated with TNFα for 24 hours. The wild-type protein completely restores the NF-κB pathway whereas TNFα-dependent activation of the NF-κB pathway is affected by the mutant proteins in differing degrees.
NEMO-deficient mouse embryo fibroblasts (MEF) are cultured in cell culture jars and transiently transfected with a mixture containing: 0.2 μg of a plasmid pEF1 coding for β-galactosidase, 0.5 μg of a plasmid containing the Igk-luciferase reporter gene and 2 μg of plasmids expressing the different variants of NEMO. Twenty-four hours after transfection, the cells are activated with TNFα (20 ng/ml) for 24 hours. The cells are then recovered and then lysed in 110 μl of a buffer of 25 mM Tris/Phosphate pH 7.8, 8 mM MgCl2, 1% Triton, 1 mM dithiothreitol, 15% to glycerol to which a cocktail of proteases is added (Roche). […] The activity of the reporter gene is measured.

[1] = Gel filtration of the wild-type CC2-LZ protein and the mutant F312A; type: physicochemical; conditions: CC2-LZ domain of NEMO; compared with wild-type CC2-LZ protein
Description: The gel filtration experiments are carried out at 4° C. on a Superdex 75 HR 10/30 column (Amersham Biosciences). The column is equilibrated in a buffer of Tris/HCl 50 mM pH7.5, NaCl 200 mM, DTE 0.2 mM at 4° C. with a flow rate of 0.5 ml/min. A sample of constant volume (200 μl), at a concentration of 0.3 μM, is injected onto the column at a rate of 0.5 ml/min. The proteins are diluted in the equilibration buffer of the column and allowed to stand at 4° C. for 2 hours before injection in order to allow them to equilibrate. In order to detect elution of the proteins, an RF-10 AXL spectrofluorimeter (Shimadzu) is connected on-line to the AKTA apparatus. The intrinsic fluorescence is recorded, measuring the emission of fluorescence of the tyrosine residues at 310 nm after excitation at 280 nm.

| Substance | inhibition of TNFα-dependent activation of the NF-κB pathway (NF-κB pathway) [%] | effect of the mutation on the stability of the dimer (elution profile on gel filtration) [1] |
| --- | --- | --- |
| A323P: human NEMO protein with point mutation Ala323Pro (position 316 in the mouse), cause of incontinentia pigmenti | 95 |  |
| F312A: human NEMO / CC2-LZ protein with point mutation Phe312Ala (position 305 in the mouse), within the ubiquitin-binding site | 78 | does not affect the stability of the dimer |
